Measured values reported in US20080267880A1, “AUTOMATED METHOD FOR HIGH THROUGHTOUT SCREENING OF NEMATODES” (priority 2002, published 2008).
“And” between values parts separate entries of the source, which are not always exact repeats. Equal values may be shown once.

Legend:
[1] = tested on: wild-type worms (C. elegans N2); type: in vivo, Caenorhabditis elegans
Protocol: Eggs were transferred to 24-well plates (Corning Inc., NY) containing 1 ml S-medium, without cholesterol, plus 1×10^8 cells/ml E. coli OP50, and grown at 25° C. All assays were performed on 3 day old egg-laying hermaphrodites. For worms treated with the superoxide/dismutase mimetic Euk-134 (Eukarion, Mass.) a single dose was added from a 5 mM stock (in Milli-Q water) on day one. At adulthood, 100 μL of culture media was removed from each well and replaced with 100 μL of paraquat stock solution (final concentration 40 mM). The cultures were then placed back at 25° C. and scored 48 h later for touch-provoked movement using a platinum wire. Immediately following the manual score, SYTOX green dye was added to each well to a final concentration of 1 μM.
We then examined the utility of SYTOX green dye as a score of death due to oxidative stress by incubating 3 day old gravid adult worms in the presence or absence of 40 mM paraquat for 48 hr. Death was first scored by the absence of touch provoked movement and 15 min later by the presence of SYTOX-associated fluorescence (FIG. 6A). […] Following the addition of […] SYTOX green dye and incubation for 15 min at room temperature, death was scored as the presence of fluorescence (FIG. 6A). The mean fraction alive (±SEM) as scored by SYTOX-associated fluorescence was 0.95±0.02 (n=69) in controls and 0.07±0.04 (n=157) in paraquat treated worms.
The utility of SYTOX dye was further tested in an experiment in which worms were cultured in the presence or absence of Euk-134 prior to paraquat exposure (FIG. 6B). […] The mean fraction alive (±SEM) scored by touch-provoked movement was 0.06±0.03 (n=47, 40 mM paraquat) and 0.78±0.11 (n 51, 40 mM paraquat+0.5 mM Euk134). The mean fraction alive (±SEM) scored using SYTOX dye was 0.13±0.00 (n=45, 40 mM paraquat) and 0.92±0.01 (n=51, 40 mM paraquat+0.5 mM Euk134). In each of these experiments the percentage of animals scored as alive using the SYTOX score was always slightly higher than the manual score.

[2] = tested on: wild type C. elegans N2; experiment: Microplate thermotolerance assay (35° C. heat shock, SYTOX fluorescence score of death); type: in vivo, Caenorhabditis elegans; design: thermotolerance compared to untreated wild type worms: dose or concentration left out as unconfirmed; conditions: heat shock 35° C.
Protocol: Worms (˜10,000 to 20,000) were washed off NGM plates with 10 ml S-basal into a 15 ml tube. After gravity settling for 5 minutes, 9 ml S-basal was aspirated and replaced with fresh 9 ml S-basal. Following a further 2 washes the nematodes were introduced to the sample cup on the COPAS™ BIOSORT at a concentration of 1 worm per μl. Worms were dispensed, 1 animal per well, into either 96 well or 384 well microtitre plates according to the manufacturers instructions. For thermotolerance assays 384 well low volume plates (Greiner Bio-One Inc, Longwood, Fla.) were prepared with 20 μl S-medium containing SYTOX® at a final concentration of 1 μM. […]
The thermotolerance assay was performed in a Fluoroskan Ascent fluorometer (Thermo Labsystems, Finland). The ambient temperature of the fluorometer was set to 35° C. and Ascent software was configured to measure the fluorescence from each well every 30 minutes over a 20-24 hour period with a 20 millisecond measurement time for each well. At this setting a complete 384 well plate could be read within 30 seconds. The excitation wavelength for fluorescence was 485 nm and the emission wavelength 538 nm.
Analysis of individual fluorescence curves was performed using the Fluoroskan Ascent software. A 100% increase in fluorescence over baseline was used a cut-off to define a death event. […]

[3] = tested on: wild type C. elegans N2; conditions: Babar et al. (1999); cited from earlier work
[4] = 40 mM paraquat+0.5 mM Euk134, 48 h

Compound: C[n+]1ccc(-c2cc[n+](C)cc2)cc1 [paraquat]
- mean fraction alive (±SEM), SYTOX-associated fluorescence score ([1]; 40 mM paraquat alone, 48 h, 3 day old gravid adults, 15 min SYTOX): 0.07±0.04 and 0.13±0.00

Compound: O=c1cc(N2CCOCC2)oc2c(-c3ccccc3)cccc12 [LY294002, 2-(4-Morpholinyl)-8-phenyl-4H-1-benzopyran-4-one]
- effect of the drug on thermotolerance ([2]; 100 nM LY294002): no significant effect
- thermotolerance compared to untreated wild type worms ([2]; grown from eggs to 4 day adults in S-medium at 20° C.): significantly more thermotolerant
- thermotolerance of treated wild type worms (previously shown) [3]: confers thermotolerance similar to that seen in age-1(hx546)

Compound: COc1cccc(C=NCCN=Cc2cccc(OC)c2[O-])c1[O-].[Cl-].[Mn+3] [Euk-134]
- mean fraction alive (±SEM), scored by touch-provoked movement [1, 4]: 0.78±0.11
- mean fraction alive (±SEM), scored using SYTOX dye [1, 4]: 0.92±0.01
